From patent publication US20140073628A1, “BENZOXAZEPINES ASN INHIBITORS OF P13K/M TOR AND METHODS OF THEIR USE AND MANUFACTURE” (priority 2010, published 2014)

Molecular target: mTOR/GbL/Raptor (mTORC1) (Homo sapiens, UniProt P42345)
Assay: mTOR/GbL/Raptor (mTORC1) ELISA assay
Format: biochemical
Conditions: phosphorylation of 4E-BP1; 0.2 nM mTORC1, 10 μM ATP, 50 nM NHis-tagged 4E-BP1
Description: mTOR/GbL/Raptor (mTORC1) ELISA Assay
The measurement of mTORC1 enzyme activity was performed in an ELISA assay format following the phosphorylation of 4E-BP1 protein. All experiments were performed in the 384-well format. Generally, 0.5 μL DMSO containing varying concentrations of the test compound was mixed with 15 μL enzyme solution. Kinase reactions were initiated with the addition of 15 μL of substrates-containing solution. The assay conditions were as follows; 0.2 nM mTORC1, 10 μM ATP and 50 nM NHis-tagged 4E-BP1 in 20 mM Hepes, pH 7.2, 1 mM DTT, 50 mM NaCl, 10 mM MnCl2, 0.02 mg/mL BSA, 0.01% CHAPS, 50 mM β-glycerophosphate. Following an incubation of 120 minutes at ambient temperature, 20 μL of the reaction volume was transferred to a Ni-Chelate-coated 384-well plate. The binding step of the 4E-BP1 protein proceeded for 60 minutes, followed by washing 4 times each with 50 μL of Tris-buffered saline solution (TBS). Anti-phospho-4E-BP1 rabbit-IgG (20 μL, 1:5000) in 5% BSA-TBST (0.2% Tween-20 in TBS) was added and further incubated for 60 minutes. Incubation with a secondary HRP-tagged anti-IgG was similarly performed after washing off the primary antibody (4 washes of 50 μL). Following the final wash step with TBST, 20 μL of SuperSignal ELISA Femto (Pierce Biotechnology) was added and the luminescence measured using an EnVision plate reader.

CC1(C)CCc2nc(N)nc(N3CCOc4ccc(-c5cnc6[nH]cnc6c5)cc4C3)c2C1 [Compound 45, 4-[7-(3H-imidazo[4,5-b]pyridin-6-yl)-2,3-dihydro-1,4-benzoxazepin-4(5H)-yl]-6,6-dimethyl-5,6,7,8-tetrahydroquinazolin-2-amine]
IC50: ≤ 100 nM

CC(=O)OCc1nc(C)c(C(C)C)c(N2CCOc3ccc(-c4ccc5nc(C)[nH]c5c4)cc3C2)n1 [Compound 4, {4-methyl-6-[7-(2-methyl-1H-benzimidazol-5-yl)-2,3-dihydro-1,4-benzoxazepin-4(5H)-yl]-5-(1-methylethyl)pyrimidin-2-yl}methyl acetate]
IC50: ≤ 100 nM

Cc1nc(N)nc(N2CCOc3ccc(-c4cnc5[nH]cnc5c4)cc3C2)c1Cc1ccc(F)cc1 [Compound 47, 5-[(4-fluorophenyl)methyl]-4-[7-(3H-imidazo[4,5-b]pyridin-6-yl)-2,3-dihydro-1,4-benzoxazepin-4(5H)-yl]-6-methylpyrimidin-2-amine]
IC50: ≤ 100 nM

Cc1nc(N)nc(N2CCOc3ccc(-c4ccc5[nH]cnc5c4)cc3C2)c1C(C)C [Compound 40, 4-[7-(1H-benzimidazol-5-yl)-2,3-dihydro-1,4-benzoxazepin-4(5H)-yl]-6-methyl-5-(1-methylethyl)pyrimidin-2-amine]
IC50: ≤ 100 nM

Cc1nc2ccc(-c3cc(F)c4c(c3)CN(c3nc(N)nc(C)c3C(C)C)CCO4)cc2[nH]1 [Compound 51, 4-[9-fluoro-7-(2-methyl-1H-benzimidazol-6-yl)-2,3-dihydro-1,4-benzoxazepin-4(5H)-yl]-6-methyl-5-(1-methylethyl)pyrimidin-2-amine]
IC50: ≤ 100 nM

COc1ccc2c(N3CCOc4ccc(-c5ccc6[nH]c(C)nc6c5)cc4C3)nc(CN(C)C)nc2c1 [Compound 38, N,N-dimethyl-1-{4-[7-(2-methyl-1H-benzimidazol-5-yl)-2,3-dihydro-1,4-benzoxazepin-4(5H)-yl]-7-(methyloxy)quinazolin-2-yl}methanamine]
IC50: 500 to 2500 nM

COc1ccc(-c2ccc3c(c2)CN(c2nc(CN(C)C)nc4c2CC(C)(C)CC4)CCO3)cc1S(C)(=O)=O [Compound 9, 1-(6,6-dimethyl-4-{7-[4-(methyloxy)-3-(methylsulfonyl)phenyl]-2,3-dihydro-1,4-benzoxazepin-4(5H)-yl}-5,6,7,8-tetrahydroquinazolin-2-yl)-N,N-dimethylmethanamine]
IC50: 500 to 2500 nM

Cc1nc2cc(-c3ccc4c(c3)CN(c3nc(NCCN(C)C)nc(C)c3Cc3ccc(F)cc3)CCO4)ccc2[nH]1 [Compound 11, N′-{5-[(4-fluorophenyl)methyl]-4-methyl-6-[7-(2-methyl-1H-benzimidazol-5-yl)-2,3-dihydro-1,4-benzoxazepin-4(5H)-yl]pyrimidin-2-yl}-N,N-dimethylethane-1,2-diamine]
IC50: ≤ 100 nM

Cc1nc2cc(-c3ccc4c(c3)CN(c3nc(NC5CNC5)nc(C)c3Cc3ccc(F)cc3)CCO4)ccc2[nH]1 [Compound 14, N-azetidin-3-yl-5-[(4-fluorophenyl)methyl]-4-methyl-6-[7-(2-methyl-1H-benzimidazol-5-yl)-2,3-dihydro-1,4-benzoxazepin-4(5H)-yl]pyrimidin-2-amine]
IC50: ≤ 100 nM

COC(=O)Cc1c(C)nc(CN(C)C)nc1N1CCOc2ccc(-c3ccc4nc(C)[nH]c4c3)cc2C1 [Compound 6, methyl {2-[(dimethylamino)methyl]-4-methyl-6-[7-(2-methyl-1H-benzimidazol-5-yl)-2,3-dihydro-1,4-benzoxazepin-4(5H)-yl]pyrimidin-5-yl}acetate]
IC50: 500 to 2500 nM

Cc1nc(N)nc(N2CCOc3ccc(-c4ccc5[nH]cnc5c4)cc3C2)c1Cc1ccc(F)cc1 [Compound 36, 4-[7-(1H-benzimidazol-5-yl)-2,3-dihydro-1,4-benzoxazepin-4(5H)-yl]-5-[(4-fluorophenyl)methyl]-6-methylpyrimidin-2-amine]
IC50: ≤ 100 nM

CCN(CC)Cc1nc(C)c(C(C)C)c(N2CCOc3ccc(-c4ccc5nc(C)[nH]c5c4)cc3C2)n1 [Compound 3, N-ethyl-N-({4-methyl-6-[7-(2-methyl-1H-benzimidazol-5-yl)-2,3-dihydro-1,4-benzoxazepin-4(5H)-yl]-5-(1-methylethyl)pyrimidin-2-yl}methyl)ethanamine]
IC50: 100 to 500 nM

COCCOc1cc(-c2ccc3c(c2)CN(c2nc(CN(C)C)nc4c2CC(C)(C)CC4)CCO3)ccc1OC [Compound 7, 1-(6,6-dimethyl-4-{7-[4-(methyloxy)-3-{[2-(methyloxy)ethyl]oxy}phenyl]-2,3-dihydro-1,4-benzoxazepin-4(5H)-yl}-5,6,7,8-tetrahydroquinazolin-2-yl)-N,N-dimethylmethanamine]
IC50: 100 to 500 nM

Cc1nc2ccc(-c3ccc4c(c3)CN(c3nc(CN(C)C)nc(C)c3C)CCO4)cc2[nH]1 [Compound 2, I-{4,5-dimethyl-6-[7-(2-methyl-1H-benzimidazol-6-yl)-2,3-dihydro-1,4-benzoxazepin-4(5H)-yl]pyrimidin-2-yl}-N,N-dimethylmethanamine]
IC50: 500 to 2500 nM

Cc1nc2cc(-c3ccc4c(c3)CN(c3nc(CNCCF)nc(C)c3C(C)C)CCO4)ccc2[nH]1 [Compound 34, 2-fluoro-N-({4-methyl-6-[7-(2-methyl-1H-benzimidazol-5-yl)-2,3-dihydro-1,4-benzoxazepin-4(5H)-yl]-5-(1-methylethyl)pyrimidin-2-yl}methyl)ethanamine]
IC50: ≤ 100 nM

Cc1nc2cc(-c3ccc4c(c3)CN(c3nc(CF)nc5c3CC(C)(C)CC5)CCO4)ccc2[nH]1 [Compound 25, 4-[2-(fluoromethyl)-6,6-dimethyl-5,6,7,8-tetrahydroquinazolin-4-yl]-7-(2-methyl-1H-benzimidazol-5-yl)-2,3,4,5-tetrahydro-1,4-benzoxazepine]
IC50: ≤ 100 nM

Cc1nc2cc(-c3ccc4c(c3)CN(c3nc(CN5CCCC5)nc(C)c3C(C)C)CCO4)ccc2[nH]1 [Compound 20, 7-(2-methyl-1H-benzimidazol-5-yl)-4-[6-methyl-5-(1-methylethyl)-2-(pyrrolidin-1-ylmethyl)pyrimidin-4-yl]-2,3,4,5-tetrahydro-1,4-benzoxazepine]
IC50: 100 to 500 nM

COc1ccc2c(N3CCOc4ccc(-c5ccc6[nH]cnc6c5)cc4C3)nc(CN(C)C)nc2c1 [Compound 37, 1-{4-[7-(1H-benzimidazol-5-yl)-2,3-dihydro-1,4-benzoxazepin-4(5H)-yl]-7-(methyloxy)quinazolin-2-yl}-N,N-dimethylmethanamine]
IC50: 500 to 2500 nM

Cc1nc2cc(-c3ccc4c(c3)CN(c3nc(N)nc(C)c3Cc3ccc(F)cc3)CCO4)cnc2[nH]1 [Compound 48, 5-[(4-fluorophenyl)methyl]-4-methyl-6-[7-(2-methyl-3H-imidazo[4,5-b]pyridin-6-yl)-2,3-dihydro-1,4-benzoxazepin-4(5H)-yl]pyrimidin-2-amine]
IC50: ≤ 100 nM

C=CCc1c(C)nc(N)nc1N1CCOc2ccc(-c3ccc4nc(C)[nH]c4c3)cc2C1 [Compound 35, 4-methyl-6-[7-(2-methyl-1H-benzimidazol-5-yl)-2,3-dihydro-1,4-benzoxazepin-4(5H)-yl]-5-prop-2-en-1-ylpyrimidin-2-amine]
IC50: ≤ 100 nM

COc1ccc(-c2ccc3c(c2)CN(c2nc(CN(C)C)nc(C)c2C(C)C)CCO3)cc1NS(C)(=O)=O [Compound 10]
IC50: 100 to 500 nM

COc1ccc(-c2ccc3c(c2)CN(c2nc(N)nc(C)c2C(C)C)CCO3)cc1NS(C)(=O)=O [Compound 16, N-[5-{4-[2-amino-6-methyl-5-(1-methylethyl)pyrimidin-4-yl]-2,3,4,5-tetrahydro-1,4-benzoxazepin-7-yl}-2-(methyloxy)phenyl]methanesulfonamide]
IC50: ≤ 100 nM

Cc1nc2cc(-c3ccc4c(c3)CN(c3nc(N)nc5c3CC(C)(C)CC5)CCO4)ccc2[nH]1 [Compound 29, 6,6-dimethyl-4-[7-(2-methyl-1H-benzimidazol-5-yl)-2,3-dihydro-1,4-benzoxazepin-4(5H)-yl]-5,6,7,8-tetrahydroquinazolin-2-amine]
IC50: ≤ 100 nM

Cc1nc2cc(-c3ccc4c(c3)CN(c3nc(N)nc(C)c3C(C)C)CCO4)ccc2[nH]1 [Compound 41, 4-methyl-6-[7-(2-methyl-1H-benzimidazol-5-yl)-2,3-dihydro-1,4-benzoxazepin-4(5H)-yl]-5-(1-methylethyl)pyrimidin-2-amine]
IC50: ≤ 100 nM

Cc1nc2cc(-c3ccc4c(c3)CN(c3nc(C(C)N)nc5c3CC(C)(C)CC5)CCO4)ccc2[nH]1 (stereo not drawn) [Compound 24, 1-{6,6-dimethyl-4-[7-(2-methyl-1H-benzimidazol-5-yl)-2,3-dihydro-1,4-benzoxazepin-4(5H)-yl]-5,6,7,8-tetrahydroquinazolin-2-yl}ethanamine]
IC50: ≤ 100 nM

Cc1nc(N)nc(N2CCOc3ccc(-c4cnc5[nH]c(N)nc5c4)cc3C2)c1C(C)C [Compound 46, 6-{4-[2-amino-6-methyl-5-(1-methylethyl)pyrimidin-4-yl]-2,3,4,5-tetrahydro-1,4-benzoxazepin-7-yl}-3H-imidazo[4,5-b]pyridin-2-amine]
IC50: ≤ 100 nM

Cc1nc2cc(-c3ccc4c(c3)CN(c3nc(CN(C)C)nc(C)c3Cl)CCO4)ccc2[nH]1 [Compound 31, 1-{5-chloro-4-methyl-6-[7-(2-methyl-1H-benzimidazol-5-yl)-2,3-dihydro-1,4-benzoxazepin-4(5H)-yl]pyrimidin-2-yl}-N,N-dimethylmethanamine]
IC50: 500 to 2500 nM
